Data taken from patent US8389511B2, “Bicyclic heterocyclic derivative” (Dainippon Sumitomo Pharma Co., Ltd., priority 2007, dated 2013).
Counter-ions that a name gives are not always drawn.

These compounds were tested against T1, Recombinant human renin (Homo sapiens, UniProt P00797) (assay: In vitro renin inhibitory activity assay (fluorescence, EDANS/DABCYL peptide substrate)). Conditions: recombinant human renin (50 ng), 0.1M HEPES buffer pH 7.4, substrate 4 μM, 37° C., one hour, fluorescence 340/500 nm.
T1 sequence (P00797 67-406): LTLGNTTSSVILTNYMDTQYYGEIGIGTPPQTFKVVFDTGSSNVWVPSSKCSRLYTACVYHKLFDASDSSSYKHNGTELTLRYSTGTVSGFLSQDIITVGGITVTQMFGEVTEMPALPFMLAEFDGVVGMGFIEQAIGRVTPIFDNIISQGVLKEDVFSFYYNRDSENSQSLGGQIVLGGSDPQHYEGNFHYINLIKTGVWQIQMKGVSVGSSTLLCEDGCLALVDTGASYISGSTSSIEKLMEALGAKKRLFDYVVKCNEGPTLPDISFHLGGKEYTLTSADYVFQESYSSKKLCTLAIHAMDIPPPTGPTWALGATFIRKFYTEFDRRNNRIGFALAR
Assay type: biochemical
Description: In Vitro Renin Inhibitory Activity Assay
Recombinant human renin (50 ng) was reacted in 0.1M HEPES buffer (pH 7.4) containing 0.1M NaCl, 1 mM EDTA and 0.1 mg/mL BSA together with a substrate and a test compound at 37° C. for one hour. As the substrate, Arg-Glu(EDANS)-[…]DABCYL)-Arg or DABCYL-γ-Abu-[…]EDANS was added in such an amount so that the final concentration thereof became 4 μM. The elevated fluorescence intensity at the exciting wavelength 340 nm and the fluorescence wavelength 500 nm was measured by a fluorescence plate reader.

IC50 [nM]	Structure (SMILES)
0.8	COC(=O)NCCN1C(=O)[C@](C)(c2cc(F)cc(F)c2)Oc2cc(Cl)c(C(=O)N(C(C)C)[C@@H]3CCCNC3)cc21 [Example 30]
0.2	COC(=O)NCCN1C(=O)[C@](C)(c2cc(F)cc(F)c2)Oc2cc(Br)c(C(=O)N(C(C)C)[C@@H]3CCCNC3)cc21 [Example 36]
4.6	CCc1cc2c(cc1C(=O)N(C(C)C)[C@@H]1CCCNC1)N(CCNC(=O)OC)C(=O)C(C)(C)O2 [Example 80]
2	COC(=O)NCCN1C(=O)C(C)(COc2ccccc2)Oc2cc(C(F)(F)F)c(C(=O)N(C(C)C)C3CCCNC3)cc21 (centres unmarked) [Example 209]
1.2	COC(=O)NCCN1C(=O)C(C)(COc2cccc(OC)c2)Oc2cc(C(F)(F)F)c(C(=O)N(C(C)C)C3CCCNC3)cc21 (centres unmarked) [Example 210]
1.7	COCCCCN1C(=O)C(C)(COCCOC)Oc2cc(C(F)(F)F)c(C(=O)N(C(C)C)C3CCCNC3)cc21 (centres unmarked) [Example 212]
1.1	CCOC(=O)COCC1(C)Oc2cc(C(F)(F)F)c(C(=O)N(C(C)C)C3CCCNC3)cc2N(CCCCOC)C1=O (centres unmarked) [Example 216]
1.8	COCCCCN1C(=O)C(C)(CO)Oc2cc(C(F)(F)F)c(C(=O)N(C(C)C)C3CCCNC3)cc21 (centres unmarked) [Example 217]
0.6	CCC(=O)NCCN1C(=O)C(C)(c2cccc(C#N)c2)Oc2cc(C(F)(F)F)c(C(=O)N(C(C)C)C3CCCNC3)cc21 (centres unmarked) [Example 224]
1.5	CCC(=O)NCCN1C(=O)C(C)(c2cc(C#N)ccc2F)Oc2cc(C(F)(F)F)c(C(=O)N(C(C)C)C3CCCNC3)cc21 (centres unmarked) [Example 228]
0.3	CCC(=O)NCCN1C(=O)C(C)(c2cccc(OS(C)(=O)=O)c2)Oc2cc(C(F)(F)F)c(C(=O)N(C(C)C)C3CCCNC3)cc21 (centres unmarked) [Example 229]
1.5	COCC(=O)CCN1C(=O)C(C)(C)Oc2cc(C(F)(F)F)c(C(=O)N(C(C)C)C3CCCNC3)cc21 (centres unmarked) [Example 252]

Continued, compound first:

Structure (SMILES)	IC50 [nM]
COCCCN1C(=O)C(C)(C)Oc2cc(Br)c(C(=O)N(C(C)C)[C@@H]3CCCNC3)cc21 [Example 1, 7-Bromo-N-isopropyl-4-(3-methoxypropyl)-2,2-dimethyl-3-oxo-N-[(3R)-piperidin-3-yl]-3,4-dihydro-2H-1,4-benzoxazine-6-carboxamide hydrochloride]	0.7
COCCCN1C(=O)[C@@H](C)Oc2cc(C)c(C(=O)N(C(C)C)[C@@H]3CCCNC3)cc21 [Example 18]	11
COCCCCN1C(=O)C2(CCOCC2)Oc2cc(C)c(C(=O)N(C(C)C)[C@@H]3CCCNC3)cc21 [Example 48]	8.4
COCCCCN1C(=O)[C@@H](C)Oc2cc(C(F)(F)F)c(C(=O)N(C(C)C)[C@@H]3CCCNC3)cc21 [Example 66]	0.7
CCc1cc2c(cc1C(=O)N(C(C)C)[C@@H]1CCCNC1)N(CCCCOC)C(=O)C(C)(C)O2 [Example 79]	19.2
COCCCCN1C(=O)C(C)(C)Oc2cc(C#N)c(C(=O)N(C(C)C)[C@@H]3CCCNC3)cc21 [Example 162]	4
COCCCCN1C(=O)C(C)(C)Oc2cc(C(F)(F)F)c(C(=O)N(C(C)C)C3CCNC3)cc21 (centres unmarked) [Example 201, N-Isopropyl-4-(4-methoxybutyl)-2,2-dimethyl-3-oxo-N-pyrrolidine-3-yl-7-(trifluoromethyl)-3,4-dihydro-2H-1,4-benzoxazine-6-carboxamide hydrochloride]	82
CCC(=O)NCCN1C(=O)C(C)(C)Oc2cc(C(F)(F)F)c(C(=O)N(C3CCC3)[C@@H]3CCCNC3)cc21 [Example 202]	1.3
COCCCCN1C(=O)C(C2CCOCC2)Oc2cc(C(F)(F)F)c(C(=O)N(C(C)C)C3CCCNC3)cc21 (centres unmarked) [Example 205]	17.4
CCC(=O)NCCN1C(=O)C(C)(C)Oc2cc(C(F)(F)F)c(C(=O)N(C(C)C)C3CNCCC3c3cccc(-c4ccccc4)c3)cc21 (centres unmarked) [Example 238]	39
CCC(=O)NCCN1C(=O)C(C)(C)Oc2cc(C(F)(F)F)c(C(=O)N(CC)C3CNCCC3c3ccccc3)cc21 (centres unmarked) [Example 243]	2.2
COCC(O)CCN1C(=O)C(C)(C)Oc2cc(C(F)(F)F)c(C(=O)N(C(C)C)C3CCCNC3)cc21 (centres unmarked) [Example 251]	23.8
COCCCCN1C(=O)C(C)(C)c2cc(Cl)c(C(=O)N(C(C)C)[C@@H]3CCCNC3)cc21 [Example 254, 5-Chloro-3,3-dimethyl-N-isopropyl-1-(4-methoxybutyl)-2-oxo-N-[(3R)-piperidin-3-yl] indoline-6-carboxamide hydrochloride]	14
CCC(=O)NCCN1C(=O)C(C)(C)c2cc(Cl)c(C(=O)N(C(C)C)[C@@H]3CCCNC3)cc21 [Example 255, 5-Chloro-N-isopropyl-3,3-dimethyl-2-oxo-N-[(3R)-piperidin-3-yl]-1-[2-(propionylamino)ethyl]-indoline-6-carboxamide hydrochloride]	20
CCn1c(=O)n(CCCCOC)c2cc(C(=O)N(C(C)C)[C@@H]3CCCNC3)c(C(F)(F)F)cc21 [Example 261]	15
CCC(=O)NCCn1c(=O)n(CC)c2cc(C(F)(F)F)c(C(=O)N(C(C)C)[C@@H]3CCCNC3)cc21 [Example 262]	30
CCC(=O)NCCN1C(=O)C(C)(C)Oc2cc(F)c(C(=O)N(CC)[C@H]3CNCC[C@@H]3c3cccc(OC)c3)cc21 [Example 265]	2.2
